These compounds were tested on alpha2 Adrenoceptors (Alpha2AR) (assay: Antagonist activity on alpha2 adrenoceptors in rat vas deferens in vitro (electrically evoked contractions)). Conditions: isolated rat vas deferens, field stimulation; antagonist added at least five minutes before alpha2AR agonist.
Procedure: Antagonist activity on alpha2 Adrenoceptors (Alpha2AR) in rat vas deferens in vitro
Rats were killed by CO2-suffocation. Vas deferentia were dissected out and both prostatic halves were removed to tissue chambers containing Krebs-solution of the following composition (mM): NaCl 118, KCl 4.7, CaCl22.5, KH2PO41.2, MgSO40.6, NaHCO325, glucose 11.1, aerated by 5% carbogen, temperature 37° C., pH 7.4. Propranolol […] and desipramine […] were added to prevent the possible effects on […] receptors and to prevent re-uptake of released norepinephrine, respectively. Preparations were tied to the bottom hooks of the incubation chambers and then to isometric force-displacement transducers above. Electrical stimulation was started after the equilibrium period (5 minutes under a resting tension of 0.5 g) by introducing field stimulation with the following parameters: twin-pulses, voltage 70 V, frequency 0.2 Hz, delay 5 ms, duration 2 ms. […] Inhibition of the electrically evoked contractions was measured as the response to alpha2AR agonists. Antagonist was administered into the incubation medium at least five minutes before agonist. Means ± SEM of percentage inhibition were calculated in the absence and in the presence of antagonist and expressed as dose-response curves. In order to express the antagonist potency, the pA2-value was calculated.

| SMILES | vas deferens Alpha2 antagonistic activity, pA2 |
| --- | --- |
| c1ccc(C2CC(Cc3c[nH]cn3)c3ccccc32)cc1 (stereo not shown) [Compound 1, 4-(3-Phenylindan-1-ylmethyl)-1H-imidazole] | pA2 = 7.0 |
| Oc1ccc2c(c1)C(Cc1c[nH]cn1)CC2c1ccccc1 (stereo not shown) [Compound 4, 3-(1H-imidazol-4-ylmethyl)-1-phenylindan-5-ol] | pA2 = 6.9 |
| Oc1ccc(C2CC(Cc3c[nH]cn3)c3cc(O)ccc32)cc1 (stereo not shown) [Compound 6, 1-(4-Hydroxyphenyl)-3-(1H-imidazol-4-ylmethyl)indan-5-ol] | pA2 = 6.6 |
| Fc1ccc(C2CC(Cc3c[nH]cn3)c3cc(F)ccc32)cc1 (stereo not shown) [Compound 15, 4-[6-Fluoro-3-(4-fluorophenyl)indan-1-ylmethyl]-1H-imidazole] | pA2 = 6.2 |
| Fc1ccccc1C1CC(Cc2c[nH]cn2)c2ccccc21 (stereo not shown) [Compound 10, 4-[3-(2-Fluorophenyl)indan-1-ylmethyl]-1H-imidazole] | pA2 = 6.2 |
| Oc1cc2c(cc1O)C(c1ccccc1)CC2Cc1c[nH]cn1 (stereo not shown) [Compound 3, 1-(1H-Imidazol-4-ylmethyl)-3-phenylindan-5,6-diol] | pA2 = 5.6 |
| Fc1cccc(C2CC(Cc3c[nH]cn3)c3ccccc32)c1 (stereo not shown) [Compound 9, 4-[3-(3-Fluorophenyl)indan-1-ylmethyl]-1H-imidazole] | pA2 = 6.2 |
| COc1cc2c(cc1OC)C(c1ccccc1)CC2Cc1c[nH]cn1 (stereo not shown) [Compound 2, 4-(5,6-Dimethoxy-3-phenylindan-1-ylmethyl)-1H-imidazole] | pA2 = 6.0 |
| Oc1ccc2c(c1)C(Cc1c[nH]cn1)C(c1ccccc1)C2 (stereo not shown) [Compound 14, 3-(1H-Imidazol-4-ylmethyl)-2-phenylindan-5-ol] | pA2 = 5.5 |
| COc1ccc(C2CC(Cc3c[nH]cn3)c3cc(OC)ccc32)cc1 (stereo not shown) [Compound 5, 4-[6-Methoxy-3-(4-methoxyphenyl)indan-1-ylmethyl]-1H-imidazole] | pA2 = 6.3 |
| Oc1ccc2c(c1)C(Cc1c[nH]cn1)CC2c1ccc(F)cc1 (stereo not shown) [Compound 8, 1-(4-Fluorophenyl)-3-(1H-imidazol-4-ylmethyl)indan-5-ol] | pA2 = 6.7 |
| COc1ccc2c(c1)C(Cc1c[nH]cn1)C(c1ccccc1)C2 (stereo not shown) [Compound 13, 4-[(2,3-Dihydro-6-methoxy-2-phenyl-1H-inden-1-yl)methyl]-1H-imidazole] | pA2 = 5.6 |
| c1ccc(C2Cc3ccccc3C2Cc2c[nH]cn2)cc1 (stereo not shown) [Compound 16, 4-[(2,3-Dihydro-2-phenyl-1H-inden-1-yl)methyl]-1H-imidazole] | pA2 = 6.5 |
| Fc1ccc(C2CC(Cc3c[nH]cn3)c3ccccc32)cc1F (stereo not shown) [Compound 11, 4-[3-(3,4-Difluorophenyl)indan-1-ylmethyl]-1H-imidazole] | pA2 = 6.2 |
| Fc1ccc(C2CC(Cc3c[nH]cn3)c3ccccc32)cc1 (stereo not shown) [Compound 7, 4-[3-(4-Fluorophenyl)indan-1-ylmethyl]-1H-imidazole] | pA2 = 7.6 |
| c1ccc(C2OC(Cc3c[nH]cn3)c3ccccc32)cc1 (stereo not shown) [Compound 12, 4-(3-Phenyl-1,3-dihydroisobenzofuran-1-ylmethyl)-1H-imidazole] | pA2 = 6.3 |

Reference: patent US6388090B2, “Imidazole derivatives” (Orion Corporation, priority 2000, dated 2002)
